Experimental data: patent US9113629B2, “4-amino-6-(4-substituted-phenyl)-picolinates and 6-amino-2-(4-substituted-phenyl)-pyrimidine-4-carboxylates and their use as herbicides” (DOW AGROSCIENCES LLC, priority 2013, dated 2015)

Legend:
[1] = system: APESV: bentgrass (Apera spica-venti); assay: Post-emergent Test III, herbicidal activity in wheat and barley; assay type: in vivo; conditions: for pest or weed control at 35 g/ha / pest or weed control at 70 g/ha / pest or weed control at 140 g/ha: Apera spica-venti, post-emergence, 504 h, read-out: Visual Growth Reduction (%) 21 Days After Application APESV; for pest or weed control at 35 g/ha: 35 g ai/ha; for pest or weed control at 70 g/ha: 70 g ai/ha; for pest or weed control at 140 g/ha: 140 g ai/ha; for GR50 APESV / GR80 APESV: probit analysis, 21 days after application; for GR50 APESV: dose for growth reduction of 50 percent; for GR80 APESV: dose for growth reduction of 80 percent
Protocol: (§1) Post-emergent Test III. Seeds of the desired test plant species were planted in Sun Gro MetroMix® 306 planting mixture, which typically has a pH of 6.0 to 6.8 and an organic matter content of about 30 percent, in plastic pots with a surface area of 103.2 square centimeters (cm^2). When required to ensure good germination and healthy plants, a fungicide treatment and/or other chemical or physical treatment was applied. The plants were grown for 7-36 days (d) in a greenhouse with an approximate 14 hour (h) photoperiod which was maintained at about 18° C. during the day and 17° C. during the night. Nutrients and water were added on a regular basis and supplemental lighting was provided with overhead metal halide 1000-Watt lamps as necessary. The plants were employed for testing when they reached the second or third true leaf stage.
(§2) A weighed amount, determined by the highest rate to be tested, of each test compound was placed in a 25 mL glass vial and was dissolved in 4 mL of a 97:3 v/v mixture of acetone and DMSO to obtain concentrated stock solutions. […] The concentrated stock solutions obtained were diluted with 20 mL of an aqueous mixture containing acetone, water, isopropyl alcohol, DMSO, Agri-Dex crop oil concentrate, and X-77 surfactant in a 48:39:10:1.5:1.5:0.02 v/v ratio to obtain spray solutions containing the highest application rates. Additional application rates were obtained by serial dilution of 12 mL of the high rate solution into a solution containing 2 mL of 97:3 v/v mixture of acetone and DMSO and 10 mL of an aqueous mixture containing acetone, water, isopropyl alcohol, DMSO, Agri-Dex crop oil concentrate, and X-77 surfactant in a 48:39:10:1.5:1.5:0.02 v/v ratio to obtain ½×, ¼×, ⅛× and 1/16× rates of the high rate. Compound requirements are based upon a 12 mL application volume at a rate of 187 liters per hectare (L/ha). Formulated compounds were applied to the plant material with an overhead Mandel track sprayer equipped with 8002E nozzles calibrated to deliver 187 L/ha over an application area of 0.503 square meters at a spray height of 18 inches (43 cm) above the average plant canopy height. Control plants were sprayed in the same manner with the solvent blank.
(§3) The treated plants and control plants were placed in a greenhouse as described above and watered by subirrigation to prevent wash-off of the test compounds. After 21 d, the condition of the test plants as compared with that of the untreated plants was determined visually and scored on a scale of 0 to 100 percent where 0 corresponds to no injury and 100 corresponds to complete kill.
(§4) By applying the well-accepted probit analysis as described by J. Berkson in Journal of the American Statistical Society, 48, 565 (1953) and by D. Finney in “Probit Analysis” Cambridge University Press (1952), herbicidal injury of a specific compound at various rates can be used to calculate GR20, GR50, GR80 and GR90 values, which are defined as growth reduction factors that correspond to the effective dose of herbicide required to provide plant growth reduction (GR) of 20 percent, 50 percent, 80 percent and 90 percent, respectively. Probit analysis was applied to data collected from multiple dose rates of individual compounds utilizing the procedures explained in the following examples. The analysis of those dose rates is captured in the following tables.

[2] = system: MATSS: scented mayweed (Matricaria chamomilla), pineappleweed (Matricaria matricarioides); assay: as above; assay type: in vivo; conditions: for pest or weed control at 35 g/ha / pest or weed control at 70 g/ha / pest or weed control at 140 g/ha: Matricaria chamomilla, post-emergence, 504 h, read-out: Visual Growth Reduction (%) 21 Days After Application MATSS; for pest or weed control at 35 g/ha: 35 g ai/ha; for pest or weed control at 70 g/ha: 70 g ai/ha; for pest or weed control at 140 g/ha: 140 g ai/ha; for GR50 MATSS / GR80 MATSS: probit analysis, 21 days after application; for GR50 MATSS: dose for growth reduction of 50 percent; for GR80 MATSS: dose for growth reduction of 80 percent
Protocol: as §1, §2, §3, §4

[3] = system: KCHSC: kochia (Kochia scoparia); assay: as above; assay type: in vivo; conditions: for pest or weed control at 35 g/ha / pest or weed control at 70 g/ha / pest or weed control at 140 g/ha: Bassia scoparia, post-emergence, 504 h, read-out: Visual Growth Reduction (%) 21 Days After Application KCHSC; for pest or weed control at 35 g/ha: 35 g ai/ha; for pest or weed control at 70 g/ha: 70 g ai/ha; for pest or weed control at 140 g/ha: 140 g ai/ha; for GR50 KCHSC / GR80 KCHSC: probit analysis, 21 days after application; for GR50 KCHSC: dose for growth reduction of 50 percent; for GR80 KCHSC: dose for growth reduction of 80 percent
Protocol: as §1, §2, §3, §4

[4] = as above; assay type: in vivo, Lolium multiflorum, Lolium rigidum; conditions: Lolium multiflorum, post-emergence, 504 h, read-out: Visual Growth Reduction (%) 21 Days After Application LOLSS; for pest or weed control at 35 g/ha: 35 g ai/ha; for pest or weed control at 70 g/ha: 70 g ai/ha; for pest or weed control at 140 g/ha: 140 g ai/ha
Protocol: as §1, §2, §3, §4

[5] = system: HORSS: barley, including spring and winter (Hordeum vulgare); assay: as above; assay type: in vivo; conditions: for pest or weed control at 35 g/ha / pest or weed control at 70 g/ha / pest or weed control at 140 g/ha: Hordeum vulgare, post-emergence, 504 h, read-out: Visual Growth Reduction (%) 21 Days After Application HORSS; for pest or weed control at 35 g/ha: 35 g ai/ha; for pest or weed control at 70 g/ha: 70 g ai/ha; for pest or weed control at 140 g/ha: 140 g ai/ha; for GR20 HORSS: probit analysis, dose for growth reduction of 20 percent, 21 days after application, crop
Protocol: as §1, §2, §3, §4

[6] = system: SETVI: green foxtail (Setaria viridis); assay: as above; assay type: in vivo; conditions: for pest or weed control at 35 g/ha / pest or weed control at 70 g/ha / pest or weed control at 140 g/ha: Setaria viridis, post-emergence, 504 h, read-out: Visual Growth Reduction (%) 21 Days After Application SETVI; for pest or weed control at 35 g/ha: 35 g ai/ha; for pest or weed control at 70 g/ha: 70 g ai/ha; for pest or weed control at 140 g/ha: 140 g ai/ha; for GR50 SETVI / GR80 SETVI: probit analysis, 21 days after application; for GR50 SETVI: dose for growth reduction of 50 percent; for GR80 SETVI: dose for growth reduction of 80 percent
Protocol: as §1, §2, §3, §4

[7] = system: LOLSS: ryegrass including, Italian ryegrass (Lolium multiflorum), rigid ryegrass (Lolium rigidum), annual ryegrass (Lolium multiflorum subsp. Gaudini); assay: as above; assay type: in vivo; conditions: probit analysis, 21 days after application; for GR50 LOLSS: dose for growth reduction of 50 percent; for GR80 LOLSS: dose for growth reduction of 80 percent
Protocol: as §1, §2, §3, §4

[8] = system: TRZSS: wheat, including spring and winter (Triticum aestivum); assay: as above; assay type: in vivo; conditions: for pest or weed control at 35 g/ha / pest or weed control at 70 g/ha / pest or weed control at 140 g/ha: Triticum aestivum, post-emergence, 504 h, read-out: Visual Growth Reduction (%) 21 Days After Application TRZSS; for pest or weed control at 35 g/ha: 35 g ai/ha; for pest or weed control at 70 g/ha: 70 g ai/ha; for pest or weed control at 140 g/ha: 140 g ai/ha; for GR20 TRZSS: probit analysis, dose for growth reduction of 20 percent, 21 days after application, crop
Protocol: as §1, §2, §3, §4

Compound	pest or weed control at 35 g/ha [1] [%]	pest or weed control at 70 g/ha [1] [%]	pest or weed control at 140 g/ha [1] [%]	GR50 APESV [1] [g ai/ha]	GR80 APESV [1] [g ai/ha]	pest or weed control at 35 g/ha [2] [%]	pest or weed control at 70 g/ha [2] [%]	pest or weed control at 140 g/ha [2] [%]	GR50 MATSS [2] [g ai/ha]	GR80 MATSS [2] [g ai/ha]	pest or weed control at 35 g/ha [3] [%]	pest or weed control at 70 g/ha [3] [%]	pest or weed control at 140 g/ha [3] [%]	GR50 KCHSC [3] [g ai/ha]	GR80 KCHSC [3] [g ai/ha]	pest or weed control at 35 g/ha [4] [%]	pest or weed control at 70 g/ha [4] [%]	pest or weed control at 140 g/ha [4] [%]	pest or weed control at 35 g/ha [5] [%]	pest or weed control at 70 g/ha [5] [%]	other results
Nc1c(F)c(-c2ccc(Br)cc2)nc(C(=O)O)c1Cl [Compound 20]	85 to 94	85 to 94	85 to 94	2	12	95 to 100	95 to 100	95 to 100	1	1	95 to 100	95 to 100	95 to 100	2	5	45 to 59	60 to 74	60 to 74	85 to 94	95 to 100	pest or weed control at 140 g/ha [5]: 95 to 100%; GR20 HORSS [5]: 1 g ai/ha; pest or weed control at 35 g/ha [6]: 95 to 100%; pest or weed control at 70 g/ha [6]: 95 to 100%; pest or weed control at 140 g/ha [6]: 95 to 100%; GR50 SETVI [6]: 4 g ai/ha; GR80 SETVI [6]: 10 g ai/ha; GR50 LOLSS [7]: 25 g ai/ha; GR80 LOLSS [7]: >140 g ai/ha; pest or weed control at 35 g/ha [8]: 85 to 94%; pest or weed control at 70 g/ha [8]: 85 to 94%; pest or weed control at 140 g/ha [8]: 85 to 94%; GR20 TRZSS [8]: 1 g ai/ha
N#Cc1ccc(-c2nc(C(=O)O)c(Cl)c(N)c2F)cc1 [Compound 39]	30 to 44	45 to 59	60 to 74	70	>140	95 to 100	95 to 100	95 to 100	1	1	75 to 84	85 to 94	85 to 94	3	40	30 to 44	45 to 59	60 to 74	30 to 44	45 to 59	pest or weed control at 140 g/ha [5]: 60 to 74%; GR20 HORSS [5]: 18 g ai/ha; pest or weed control at 35 g/ha [6]: 30 to 44%; pest or weed control at 70 g/ha [6]: 45 to 59%; pest or weed control at 140 g/ha [6]: 60 to 74%; GR50 SETVI [6]: 68 g ai/ha; GR80 SETVI [6]: >140 g ai/ha; GR50 LOLSS [7]: 82 g ai/ha; GR80 LOLSS [7]: >140 g ai/ha; pest or weed control at 35 g/ha [8]: 75 to 84%; pest or weed control at 70 g/ha [8]: 75 to 84%; pest or weed control at 140 g/ha [8]: 85 to 94%; GR20 TRZSS [8]: 1 g ai/ha
Nc1c(F)c(-c2ccc(I)cc2)nc(C(=O)O)c1Cl [Compound 45, 4-amino-3-chloro-5-fluoro-6-(4-iodophenyl)picolinic acid]	85 to 94	85 to 94	95 to 100	8	25	85 to 94	95 to 100	95 to 100	2	29	85 to 94	95 to 100	95 to 100	2	9	60 to 74	75 to 84	85 to 94	85 to 94	85 to 94	pest or weed control at 140 g/ha [5]: 95 to 100%; GR20 HORSS [5]: 1 g ai/ha; pest or weed control at 35 g/ha [6]: 60 to 74%; pest or weed control at 70 g/ha [6]: 85 to 94%; pest or weed control at 140 g/ha [6]: 95 to 100%; GR50 SETVI [6]: 18 g ai/ha; GR80 SETVI [6]: 52 g ai/ha; GR50 LOLSS [7]: 20 g ai/ha; GR80 LOLSS [7]: 69 g ai/ha; pest or weed control at 35 g/ha [8]: 85 to 94%; pest or weed control at 70 g/ha [8]: 85 to 94%; pest or weed control at 140 g/ha [8]: 85 to 94%; GR20 TRZSS [8]: 1 g ai/ha
COC(=O)c1nc(-c2ccc(Br)c(F)c2F)cc(N)c1Cl [Compound 114, methyl 4-amino-6-(4-bromo-2,3-difluorophenyl)-3-chloropicolinate]	0 to 29	0 to 29	0 to 29	>140	>140	0 to 29	0 to 29	0 to 29	>140	>140	60 to 74	60 to 74	75 to 84	3	>140	0 to 29	0 to 29	0 to 29	0 to 29	30 to 44	pest or weed control at 140 g/ha [5]: 30 to 44%; GR20 HORSS [5]: 42 g ai/ha; pest or weed control at 35 g/ha [6]: 0 to 29%; pest or weed control at 70 g/ha [6]: 0 to 29%; pest or weed control at 140 g/ha [6]: 0 to 29%; GR50 SETVI [6]: >140 g ai/ha; GR80 SETVI [6]: >140 g ai/ha; GR50 LOLSS [7]: >140 g ai/ha; GR80 LOLSS [7]: >140 g ai/ha; pest or weed control at 35 g/ha [8]: 30 to 44%; pest or weed control at 70 g/ha [8]: 45 to 59%; pest or weed control at 140 g/ha [8]: 45 to 59%; GR20 TRZSS [8]: 16 g ai/ha
